This note sets out measurements from ChEMBL document CHEMBL4261613, “Discovery of a potent orally bioavailable retinoic acid receptor-related orphan receptor-gamma-t (RORγt) inhibitor, S18-000003” (Bioorg Med Chem Lett, 2018).

The target of data set [1] is T1, Nuclear receptor ROR-gamma (Mus musculus) (UniProt P51450).
T1 sequence (whole entry): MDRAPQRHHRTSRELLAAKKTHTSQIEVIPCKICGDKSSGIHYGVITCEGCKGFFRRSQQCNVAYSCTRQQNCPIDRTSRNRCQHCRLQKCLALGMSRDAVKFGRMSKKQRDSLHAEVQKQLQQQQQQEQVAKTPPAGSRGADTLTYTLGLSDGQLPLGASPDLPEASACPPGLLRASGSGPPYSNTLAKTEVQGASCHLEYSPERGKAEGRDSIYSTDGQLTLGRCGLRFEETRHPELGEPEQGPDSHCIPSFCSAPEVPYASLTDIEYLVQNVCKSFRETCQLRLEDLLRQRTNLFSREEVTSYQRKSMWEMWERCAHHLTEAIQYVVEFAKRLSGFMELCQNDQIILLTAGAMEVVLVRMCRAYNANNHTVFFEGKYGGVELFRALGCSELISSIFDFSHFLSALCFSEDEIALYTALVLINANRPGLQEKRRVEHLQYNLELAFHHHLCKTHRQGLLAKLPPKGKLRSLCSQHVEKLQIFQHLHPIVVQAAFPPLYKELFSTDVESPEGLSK
The data set can be described thus: (§1) Transrepression of recombinant mouse GAL4-DBD fused RORgammat LBD expressed in HEK293 cells after 20 hrs by luciferase reporter gene assay. Type of data set: cell-based. On the technique in general: Reporter assays use an easily measured gene product as a stand-in for the process of interest.

Data set [2] addresses T2, Nuclear receptor ROR-gamma (Mus musculus, UniProt P51450).
T2 sequence (P51450 whole entry): T1 sequence (whole entry)
Described as §1. Type of data set: cell-based.

Data set [3] can be described thus: Stability in rat liver microsomes assessed as parent compound remaining after 2 hrs by LC-MS/MS analysis. The class given is ADME, microsome. The settings on record: read-out: Stability. In general terms: Microsomes from liver hold many membrane-bound enzymes, among them those of drug oxidation.
Data set [4] has as its target T3, Nuclear receptor ROR-gamma (Homo sapiens) (UniProt P51449).
T3 sequence (whole entry): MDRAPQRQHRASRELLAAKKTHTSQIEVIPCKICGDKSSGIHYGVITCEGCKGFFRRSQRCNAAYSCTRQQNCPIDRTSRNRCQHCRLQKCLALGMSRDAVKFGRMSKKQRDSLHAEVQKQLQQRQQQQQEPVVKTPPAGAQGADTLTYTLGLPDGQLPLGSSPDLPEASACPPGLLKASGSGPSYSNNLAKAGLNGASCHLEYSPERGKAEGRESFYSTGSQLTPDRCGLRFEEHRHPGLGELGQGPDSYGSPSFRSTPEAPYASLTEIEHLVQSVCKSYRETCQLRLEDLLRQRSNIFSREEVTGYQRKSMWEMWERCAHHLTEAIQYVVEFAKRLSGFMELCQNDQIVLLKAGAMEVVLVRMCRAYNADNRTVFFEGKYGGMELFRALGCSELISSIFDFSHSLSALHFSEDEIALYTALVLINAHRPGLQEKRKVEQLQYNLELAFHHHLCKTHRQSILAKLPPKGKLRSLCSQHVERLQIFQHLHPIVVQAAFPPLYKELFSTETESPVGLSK
Nature of the data set: (§2) Transrepression of recombinant human GAL4-DBD fused RORgammat LBD expressed in HEK293 cells after 20 hrs by luciferase reporter gene assay. Type of data set: cell-based.

Data set [5] addresses T4, Nuclear receptor ROR-gamma (Homo sapiens, UniProt P51449).
T4 sequence (P51449 whole entry): T3 sequence (whole entry)
Described as §2. The class given is cell-based.

The nature of data set [6]: Stability in human liver microsomes assessed as parent compound remaining after 2 hrs by LC-MS/MS analysis. Type of data set: ADME, microsome. The settings on record: read-out: Stability.
A short description of data set [7]: Solubility of the compound in KH2PO4/Na2HPO4 buffer at pH 6.8 by shake-flask method. Type of data set: physicochemical.
A short description of data set [8]: Solubility of the compound in NaCl/HCl buffer at pH 1.2 by shake-flask method. The class given is physicochemical.
The target in data set [9] is T2, Nuclear receptor ROR-gamma. The data set can be described thus: Transrepression of RORgammat in anti-CD3/CD28 stimulated C57BL/6 mouse CD4-positive T cells assessed as suppression of T cell differentiation to Th17 cells by measuring reduction in IL-17A level after 4 days by ELISA. (In an ELISA, binding on a coated surface is turned into a signal by an enzyme label.)

The target of data set [10] is T4, Nuclear receptor ROR-gamma. The data set can be described thus: Displacement of [3H]-Digoxin from recombinant human GST-fused RORgammat LBD after 1 to 4 hrs by scintillation counting method.

≈ marks a conversion by molar mass, not a printed value.

One may read the IC50 as the concentration that inhibits the measured activity by half. The solubility (thermodynamic) is the concentration in solution at equilibrium with solid. For `CCS(=O)(=O)c1ccc(CC(=O)Nc2ccc(C(C)(C)C(=O)Nc3cc(Cl)ccn3)cc2)cc1`, the Efficacy came out at 86% in data set [1] and 95% in [4]. For the same compound, the IC50 in data set [2] amounted to 100 nM; in [5], 8.2 nM. Further, the remaining at 2 h in data set [3] was found to be 8.1%; in data set [6], 40%. The solubility (thermodynamic) in [7] is 4.7 µM (≈ 2.35 µg/mL); in data set [8] it was > 50 µM.
`CCS(=O)(=O)c1ccc(CC(=O)Nc2ccc(C(C)(C)C(=O)Nc3cc(F)ccn3)cc2)cc1`: the Efficacy in data set [1] was 86%; in [4] it was 94%. In addition, the IC50 stood at 320 nM in data set [2] and 31 nM in data set [5]. Moreover, the remaining at 2 h in [3] turned out to be 47%; in data set [6] it was 69%. Further, the solubility (thermodynamic) in [7] and in data set [8] was > 50 µM throughout.
With `CCS(=O)(=O)c1ccc(CC(=O)Nc2ccc(C(C)(C)C(=O)Nc3ccccc3)cc2)cc1`, the figures for the Efficacy in data set [1] and in data set [4] were 69% and 93%, respectively. For the same compound, the half-inhibitory concentration (IC50) was 470 nM in [2], 14 nM in data set [5], 480 nM in [9] and < 30 nM in data set [10]. Further, the remaining at 2 h in [3] amounted to 30%; in data set [6], 8.5%. The thermodynamic solubility in [7] was 26.6 µM (≈ 12.4 µg/mL); in data set [8] it was 46.9 µM (≈ 21.8 µg/mL).
On to `CCS(=O)(=O)c1ccc(CC(=O)Nc2ccc(C(C)(C)C(=O)N(C)C)cc2)cc1`, for which the Efficacy in data set [1] was 51%; in data set [4], 89%. Moreover, the IC50 in [2] is > 10000 nM; in [5], 370 nM; in data set [10] it was 30 nM.
In the case of `CCS(=O)(=O)c1ccc(CC(=O)Nc2ccc(C(C)(C)C(=O)N(C)c3ccccc3)cc2)cc1`, the Efficacy in data set [1] stood at 76%; in [4], 93%. Besides, the IC50 in data set [2] was 330 nM; in data set [5], 14 nM; in data set [10], < 30 nM.
As to `CCS(=O)(=O)c1ccc(CC(=O)Nc2ccc(C(C)(C)C(=O)Nc3ccccc3F)cc2)cc1`, the Efficacy is 76% in data set [1] and 93% in data set [4]. The IC50 in [2] is 100 nM; in data set [5], 4.4 nM; in data set [9], 100 nM. Further, the figures for the remaining at 2 h in data set [3] and in data set [6] were 19% and 67%, respectively.
As to `CCS(=O)(=O)c1ccc(CC(=O)Nc2ccc(C(C)(C)C(=O)Nc3ccccc3C)cc2)cc1`, the results for the Efficacy in [1] and in data set [4] were 57% and 93%, respectively. Further, the values for the IC50 in [2] and in [5] were 6800 nM and 140 nM, respectively. In addition, the remaining at 2 h in data set [3] was 6%; in data set [6], 24%.
In the case of `CCS(=O)(=O)c1ccc(CC(=O)Nc2ccc(C(C)(C)C(=O)N3CC4(CCC4)C3)cc2)cc1`, the Efficacy was found to be 55% in data set [1] and 89% in data set [4]. For the same compound, the IC50 in data set [2] was 10000 nM; in data set [5], 470 nM; in data set [10], 33 nM.
With `CCS(=O)(=O)c1ccc(CC(=O)Nc2ccc(C(C)(C)C(=O)Nc3cccc(C(F)(F)F)n3)cc2)cc1`, the Efficacy in [1] came out at 66%; in data set [4], 90%. In addition, the IC50 in data set [2] came out at 5400 nM; in data set [5], 500 nM. Also, the remaining at 2 h in data set [3] worked out at 71%; in data set [6] it was 74%. Further, the solubility (thermodynamic) worked out at 0.6 µM (≈ 0.32 µg/mL) in data set [7] and 1.1 µM (≈ 0.587 µg/mL) in [8].
In the case of `CCS(=O)(=O)c1ccc(CC(=O)Nc2ccc(C(C)(C)C(=O)N3Cc4ccccc4C3)cc2)cc1`, the Efficacy in data set [1] was 84%; in data set [4], 92%. Further, the values for the IC50 in data set [2], in [5] and in data set [10] were 1900 nM, 260 nM and < 30 nM, respectively.
The corresponding values for `CCS(=O)(=O)c1ccc(CC(=O)Nc2ccc(C(C)(C)C(=O)N3CCCCC3)cc2)cc1` are 50%, 91%, > 10000 nM, 430 nM and 36 nM.
Consider `CCS(=O)(=O)c1ccc(CC(=O)Nc2ccc(C(C)(C)C(=O)Nc3ccncc3)cc2)cc1`, for which the values for the Efficacy in data set [1] and in [4] were 47% and 87%, respectively. For the same compound, the IC50 in data set [2] is > 10000 nM; in data set [5], 1800 nM. Besides, the remaining at 2 h in data set [3] is 25%; in [6] it was 4.3%. Moreover, the solubility (thermodynamic) in [7] and in data set [8] was > 50 µM throughout.
On to `CCS(=O)(=O)c1ccc(CC(=O)Nc2ccc(C(C)(C)C(=O)Nc3cc(C#N)ccn3)cc2)cc1`, for which the Efficacy was 91% in data set [1] and 97% in [4]. Also, the values for the IC50 in data set [2] and in data set [5] were 290 nM and 40 nM, respectively. The remaining at 2 h in data set [3] was found to be 72%; in data set [6], 92%. The solubility (thermodynamic) in data set [7] was determined as 25 µM (≈ 12.3 µg/mL); in data set [8], 47 µM (≈ 23.1 µg/mL).
As for `CCS(=O)(=O)c1ccc(CC(=O)Nc2ccc(C(C)(C)C(=O)N3CCc4ccccc43)cc2)cc1`, the values for the Efficacy in data set [1] and in data set [4] were 87% and 93%, respectively. Further, the IC50 was 110 nM in [2], 10 nM in data set [5] and < 30 nM in [10].
Consider `CCOC(=O)C(C)(C)c1ccc(NC(=O)Cc2ccc(S(=O)(=O)CC)cc2)cc1`, for which the Efficacy in [1] amounted to 77%; in data set [4], 93%. For the same compound, the IC50 in [2] turned out to be 3100 nM; in data set [5] it was 400 nM; in [10], 64 nM.
As to `CCS(=O)(=O)c1ccc(CC(=O)Nc2ccc(C(C)(C)C(=O)Nc3ccccn3)cc2)cc1`, the Efficacy is 73% in [1] and 93% in data set [4]. For the same compound, the IC50 in [2] is 1300 nM; in data set [5], 40 nM. Also, the remaining at 2 h stood at 36% in [3] and 60% in data set [6]. For the same compound, the thermodynamic solubility in data set [7] and in data set [8] was > 50 µM in each case.
In the case of `CCS(=O)(=O)c1ccc(CC(=O)Nc2ccc(C(C)(C)C(=O)Nc3cccnc3)cc2)cc1`, the Efficacy is 63% in data set [1] and 93% in [4]. Moreover, the IC50 in data set [2] came out at 4500 nM; in [5] it was 150 nM.
As for `CCS(=O)(=O)c1ccc(CC(=O)Nc2ccc(C(C)(C)C(=O)Nc3cc(C(F)(F)F)ccn3)cc2)cc1`, the Efficacy in data set [1] and in data set [4] was 94% each time. Besides, the IC50 in data set [2] came out at 78 nM; in data set [5] it was 25 nM. The remaining at 2 h in data set [3] came to 23%; in [6], 36%. The thermodynamic solubility came out at 0.5 µM (≈ 0.267 µg/mL) in data set [7] and 26 µM (≈ 13.9 µg/mL) in data set [8].
In the case of `CCS(=O)(=O)c1ccc(CC(=O)Nc2ccc(C(C)(C)C(=O)Nc3ncccc3F)cc2)cc1`, the Efficacy came out at 37% in data set [1] and 92% in data set [4]. For the same compound, the IC50 in data set [2] was > 10000 nM; in [5], 310 nM. Further, the remaining at 2 h was 80% in data set [3] and 93% in data set [6]. In addition, the solubility (thermodynamic) in [7] and in [8] was > 50 µM each time.
As for `CCS(=O)(=O)c1ccc(CC(=O)Nc2ccc(C(C)(C)C(=O)Nc3cccc(F)c3)cc2)cc1`, the figures for the Efficacy in [1] and in [4] were 84% and 94%, respectively. Further, the IC50 in data set [2] was 260 nM; in data set [5] it was 9.8 nM; in data set [9], 290 nM. For the same compound, the remaining at 2 h amounted to 24% in data set [3] and 2.7% in [6].
For the compound `CCS(=O)(=O)c1ccc(CC(=O)Nc2ccc(C(C)(C)C(=O)Nc3ccc(F)cc3F)cc2)cc1`, the figures for the Efficacy in data set [1] and in data set [4] were 73% and 91%, respectively. Further, the IC50 in data set [2] stood at 1800 nM; in data set [5], 95 nM; in data set [9], 1300 nM. The remaining at 2 h in [3] is 73%; in data set [6], 97%.
As to `CCS(=O)(=O)c1ccc(CC(=O)Nc2ccc(C(C)(C)C(=O)N3CCC3)cc2)cc1`, the Efficacy in data set [1] amounted to 52%; in [4] it was 90%. The figures for the IC50 in [2], in data set [5] and in data set [10] were > 10000 nM, 180 nM and < 30 nM, respectively.
